Experimental data: patent US12496289B2, “Methods of increasing magnesium bioavailability and absorption” (Balchem Corporation, priority 2020, dated 2025)

Key:
Caco-2 cells [1] = test: Caco-2 cell viability with ascorbic acid (fluorescent probes); assay type: cell-based; settings: 0, 5, 25, or 50 mM ascorbic acid for 240 min; cells propagated 14 days
Description: FIG. 5 depicts a graph illustrating the viability over time of cells incubated with various solutions. Caco-2 cells were propagated in T-75 tissue culture flasks for 14 days. The cells were then incubated with either 0, 5, 25, or 50 mM ascorbic acid for 240 min. Fluorescent probes were used to determine viability.
Experiments were performed to test the impact of various ascorbic acid concentrations on cell viability. Caco-2 cells were propagated in T-75 tissue culture flasks for 14 days. The cells were then incubated with either 0, 5, 25, or 50 mM ascorbic acid for 240 min. Fluorescent probes were used to determine viability.

Caco-2 cells [2] = test: Caco-2 in vitro magnesium transport assay; settings: for Magnesium transport with increasing treatment concentration: 0, 5, 10, 15, 20, and 25 mg Mg (ascorbate or chloride)
Description: Caco-2 cells were used to model in vitro magnesium absorption of intestinal cells. […] Six different solutions, with magnesium and varying ratios of ascorbate were tested. Each solution comprised 20 mM of magnesium. Cells were exposed to one of the six solutions for 4 hours, then the basal media was analyzed for magnesium, using a colorimetric test.
Various magnesium solutions were tested to determine their impact on magnesium transport: magnesium ascorbate, magnesium bisglycinate, magnesium orotate, magnesium threonate, and magnesium malate (trihydrate and hexahydrate; abbreviated MgM3H20 or MgM6H20 respectively in FIG. 2). […] (see FIG. 2)
Six different treatment concentrations were tested: 0, 5, 10, 15, 20, and 25 mg Mg (ascorbate or chloride).

Row | Compound | Cell viability (Caco-2 cells [1]) | Magnesium transport with increasing treatment concentration (Caco-2 cells [2]; FIG. 3) | Magnesium transport compared with magnesium chloride at any given concentration tested (Caco-2 cells [2]; 0, 5, 10, 15, 20, and 25 mg Mg, FIG. 3) | Magnesium transport rate compared with other magnesium solutions (Caco-2 cells [2]; vs magnesium bisglycinate, orotate, threonate, malate (trihydrate and hexahydrate), FIG. 2)
1 | O=C1O[C@H]([C@@H](O)CO)C(O)=C1O [ascorbic acid] | no conclusive evidence that ascorbic acid kills the cells | – | – | –
2 | [Cl-].[Cl-].[Mg+2] [magnesium chloride, reference compound] | – | increased magnesium transport, in a linear fashion | – | –
3 | magnesium ascorbate | – | significant jump in magnesium transport between the 10 mM treatment and the 15 mM treatment | greater magnesium transport than magnesium chloride | statistically significant higher transport rate than any other magnesium solution tested
